From ChEMBL document CHEMBL4507319 (2021)

How the values were obtained:
[1] = biological target: T1, Serine/threonine-protein kinase BRSK1 (Homo sapiens) (UniProt Q8TDC3); settings: Compound concentration 1000.0 nM
T1 sequence (whole entry): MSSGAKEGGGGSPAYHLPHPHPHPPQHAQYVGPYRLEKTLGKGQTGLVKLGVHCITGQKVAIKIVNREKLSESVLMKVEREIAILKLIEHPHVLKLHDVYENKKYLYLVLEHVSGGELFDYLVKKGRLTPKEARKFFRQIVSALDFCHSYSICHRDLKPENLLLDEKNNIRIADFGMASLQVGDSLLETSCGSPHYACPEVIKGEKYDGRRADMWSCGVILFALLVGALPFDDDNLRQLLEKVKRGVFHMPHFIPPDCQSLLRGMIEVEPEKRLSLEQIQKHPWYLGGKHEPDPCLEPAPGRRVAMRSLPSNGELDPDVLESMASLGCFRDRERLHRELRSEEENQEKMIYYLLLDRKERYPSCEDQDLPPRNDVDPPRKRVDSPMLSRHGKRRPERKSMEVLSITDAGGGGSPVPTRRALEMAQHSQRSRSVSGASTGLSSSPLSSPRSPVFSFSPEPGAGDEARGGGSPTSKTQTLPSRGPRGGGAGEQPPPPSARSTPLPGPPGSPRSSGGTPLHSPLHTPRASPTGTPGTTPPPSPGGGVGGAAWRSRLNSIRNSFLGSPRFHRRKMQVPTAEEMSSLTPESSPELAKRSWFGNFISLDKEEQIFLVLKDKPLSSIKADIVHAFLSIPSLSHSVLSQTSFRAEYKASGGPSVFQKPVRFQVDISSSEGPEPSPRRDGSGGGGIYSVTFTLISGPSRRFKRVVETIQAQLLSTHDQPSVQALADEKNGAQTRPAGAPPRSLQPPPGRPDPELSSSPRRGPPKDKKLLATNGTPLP

[2] = biological target: Mitotic checkpoint serine/threonine-protein kinase BUB1 (Homo sapiens) (UniProt O43683); settings: Compound concentration 1000.0 nM
[3] = biological target: Receptor tyrosine-protein kinase erbB-4 (Homo sapiens) (UniProt Q15303); settings: Compound concentration 1000.0 nM
Receptor tyrosine-protein kinase erbB-4 (Homo sapiens), sequence (Q15303 whole entry): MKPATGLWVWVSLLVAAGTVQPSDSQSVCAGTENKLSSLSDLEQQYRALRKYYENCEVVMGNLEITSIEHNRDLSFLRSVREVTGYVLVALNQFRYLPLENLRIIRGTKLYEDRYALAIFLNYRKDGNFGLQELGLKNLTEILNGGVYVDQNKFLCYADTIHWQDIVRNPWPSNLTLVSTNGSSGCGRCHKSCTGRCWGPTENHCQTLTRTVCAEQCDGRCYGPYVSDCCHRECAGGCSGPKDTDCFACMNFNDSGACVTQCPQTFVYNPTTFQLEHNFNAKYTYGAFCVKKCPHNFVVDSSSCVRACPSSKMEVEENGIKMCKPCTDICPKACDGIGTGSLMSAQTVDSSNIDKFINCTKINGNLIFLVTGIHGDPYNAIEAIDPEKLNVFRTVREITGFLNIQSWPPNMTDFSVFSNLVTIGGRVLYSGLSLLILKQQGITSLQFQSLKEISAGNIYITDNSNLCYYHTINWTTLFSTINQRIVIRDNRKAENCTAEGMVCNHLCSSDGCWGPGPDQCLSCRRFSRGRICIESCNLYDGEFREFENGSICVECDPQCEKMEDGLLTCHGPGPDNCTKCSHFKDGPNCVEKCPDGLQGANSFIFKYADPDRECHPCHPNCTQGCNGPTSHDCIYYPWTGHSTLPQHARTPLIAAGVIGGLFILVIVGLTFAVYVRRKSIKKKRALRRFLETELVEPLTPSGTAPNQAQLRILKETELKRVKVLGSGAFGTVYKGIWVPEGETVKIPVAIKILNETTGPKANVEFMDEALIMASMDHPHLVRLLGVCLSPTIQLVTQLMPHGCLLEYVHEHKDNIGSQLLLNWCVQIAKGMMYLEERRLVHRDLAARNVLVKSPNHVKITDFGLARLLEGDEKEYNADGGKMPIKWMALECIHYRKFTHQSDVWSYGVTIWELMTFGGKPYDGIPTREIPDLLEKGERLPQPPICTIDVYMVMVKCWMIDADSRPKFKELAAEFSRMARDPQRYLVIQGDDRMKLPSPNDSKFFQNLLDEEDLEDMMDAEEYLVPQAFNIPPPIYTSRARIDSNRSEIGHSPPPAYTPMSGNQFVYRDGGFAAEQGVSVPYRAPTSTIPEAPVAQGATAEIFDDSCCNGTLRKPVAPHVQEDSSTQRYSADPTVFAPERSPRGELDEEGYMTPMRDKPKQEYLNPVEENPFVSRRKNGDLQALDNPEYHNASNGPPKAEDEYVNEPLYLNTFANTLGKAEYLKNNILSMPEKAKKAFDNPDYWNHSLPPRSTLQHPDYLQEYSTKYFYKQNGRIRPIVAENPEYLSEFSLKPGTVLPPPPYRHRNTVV

[4] = biological target: Focal adhesion kinase 1 (Homo sapiens) (UniProt Q05397); settings: Compound concentration 1000.0 nM
Focal adhesion kinase 1 (Homo sapiens), sequence (Q05397 2-1052 limits assumed): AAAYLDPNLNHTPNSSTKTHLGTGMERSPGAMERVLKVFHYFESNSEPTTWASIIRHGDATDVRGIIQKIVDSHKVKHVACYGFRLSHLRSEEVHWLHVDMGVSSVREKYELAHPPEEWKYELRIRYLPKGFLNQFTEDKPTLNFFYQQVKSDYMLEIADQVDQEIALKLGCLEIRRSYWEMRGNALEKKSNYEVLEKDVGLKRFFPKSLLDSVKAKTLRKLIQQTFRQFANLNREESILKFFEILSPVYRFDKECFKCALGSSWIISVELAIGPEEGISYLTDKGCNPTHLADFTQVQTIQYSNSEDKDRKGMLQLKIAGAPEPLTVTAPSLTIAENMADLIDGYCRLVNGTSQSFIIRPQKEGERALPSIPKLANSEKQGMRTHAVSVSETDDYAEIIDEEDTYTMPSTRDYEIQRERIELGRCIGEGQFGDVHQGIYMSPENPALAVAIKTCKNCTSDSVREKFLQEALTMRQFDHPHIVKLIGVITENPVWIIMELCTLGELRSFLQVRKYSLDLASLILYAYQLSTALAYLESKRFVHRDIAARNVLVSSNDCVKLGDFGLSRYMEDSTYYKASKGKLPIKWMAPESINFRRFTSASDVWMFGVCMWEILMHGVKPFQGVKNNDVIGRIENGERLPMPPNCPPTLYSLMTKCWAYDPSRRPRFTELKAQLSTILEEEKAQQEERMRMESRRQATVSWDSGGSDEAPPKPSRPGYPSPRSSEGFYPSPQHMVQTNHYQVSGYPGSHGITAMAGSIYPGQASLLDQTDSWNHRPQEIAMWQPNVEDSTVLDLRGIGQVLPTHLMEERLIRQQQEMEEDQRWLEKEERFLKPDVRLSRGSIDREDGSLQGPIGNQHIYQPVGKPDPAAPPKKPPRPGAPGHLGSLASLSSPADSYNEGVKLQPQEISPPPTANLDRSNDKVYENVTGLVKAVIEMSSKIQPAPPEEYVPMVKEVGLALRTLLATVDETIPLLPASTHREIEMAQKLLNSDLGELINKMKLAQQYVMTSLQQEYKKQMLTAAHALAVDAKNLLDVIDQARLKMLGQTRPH

[5] = biological target: T2, Muscle, skeletal receptor tyrosine-protein kinase (Homo sapiens) (UniProt O15146); settings: Compound concentration 1000.0 nM
T2 sequence (whole entry): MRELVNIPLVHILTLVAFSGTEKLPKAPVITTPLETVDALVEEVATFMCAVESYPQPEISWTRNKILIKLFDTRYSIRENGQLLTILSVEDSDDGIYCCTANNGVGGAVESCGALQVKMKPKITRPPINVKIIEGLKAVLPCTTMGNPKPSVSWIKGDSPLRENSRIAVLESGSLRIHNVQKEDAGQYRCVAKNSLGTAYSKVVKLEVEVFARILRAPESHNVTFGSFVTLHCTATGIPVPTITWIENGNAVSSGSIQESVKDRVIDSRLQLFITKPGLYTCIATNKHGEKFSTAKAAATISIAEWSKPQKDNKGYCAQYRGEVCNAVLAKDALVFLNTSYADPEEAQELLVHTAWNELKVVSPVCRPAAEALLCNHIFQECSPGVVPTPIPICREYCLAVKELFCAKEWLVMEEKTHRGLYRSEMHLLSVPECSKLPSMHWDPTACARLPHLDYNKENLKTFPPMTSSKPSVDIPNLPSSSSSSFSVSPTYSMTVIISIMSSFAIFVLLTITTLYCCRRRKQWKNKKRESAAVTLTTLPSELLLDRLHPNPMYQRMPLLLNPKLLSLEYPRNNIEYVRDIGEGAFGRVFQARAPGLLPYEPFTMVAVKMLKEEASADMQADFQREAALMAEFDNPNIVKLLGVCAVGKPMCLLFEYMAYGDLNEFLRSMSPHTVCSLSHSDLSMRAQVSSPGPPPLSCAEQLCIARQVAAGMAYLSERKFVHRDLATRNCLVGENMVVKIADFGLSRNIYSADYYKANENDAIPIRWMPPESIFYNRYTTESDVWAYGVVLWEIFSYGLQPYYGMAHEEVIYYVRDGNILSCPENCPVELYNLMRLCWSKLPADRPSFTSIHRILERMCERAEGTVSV

[6] = biological target: T3, Serine/threonine-protein kinase NLK (Homo sapiens) (UniProt Q9UBE8); settings: Compound concentration 1000.0 nM
T3 sequence (whole entry): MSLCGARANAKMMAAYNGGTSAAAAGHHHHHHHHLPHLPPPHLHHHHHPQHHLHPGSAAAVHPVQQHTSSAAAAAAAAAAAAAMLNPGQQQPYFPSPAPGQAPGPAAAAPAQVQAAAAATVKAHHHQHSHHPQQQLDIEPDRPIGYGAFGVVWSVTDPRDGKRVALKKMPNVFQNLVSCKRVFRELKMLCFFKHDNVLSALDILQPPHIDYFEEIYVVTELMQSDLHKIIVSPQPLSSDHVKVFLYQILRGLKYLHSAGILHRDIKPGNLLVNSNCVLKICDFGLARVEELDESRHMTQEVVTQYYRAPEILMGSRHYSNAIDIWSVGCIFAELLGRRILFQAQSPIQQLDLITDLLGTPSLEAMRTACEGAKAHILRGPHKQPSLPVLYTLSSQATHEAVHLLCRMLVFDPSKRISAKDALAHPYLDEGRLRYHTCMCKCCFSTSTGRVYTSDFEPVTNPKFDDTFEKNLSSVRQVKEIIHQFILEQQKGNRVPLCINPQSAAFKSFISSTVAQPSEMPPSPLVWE

[7] = test system: Phosphatidylinositol 4,5-bisphosphate 3-kinase catalytic subunit alpha isoform (Homo sapiens), P42336 [M1043I]; settings: Compound concentration 1000.0 nM
Phosphatidylinositol 4,5-bisphosphate 3-kinase catalytic subunit alpha isoform (Homo sapiens), P42336 [M1043I], sequence (P42336 whole entry M1043I, canonical isoform): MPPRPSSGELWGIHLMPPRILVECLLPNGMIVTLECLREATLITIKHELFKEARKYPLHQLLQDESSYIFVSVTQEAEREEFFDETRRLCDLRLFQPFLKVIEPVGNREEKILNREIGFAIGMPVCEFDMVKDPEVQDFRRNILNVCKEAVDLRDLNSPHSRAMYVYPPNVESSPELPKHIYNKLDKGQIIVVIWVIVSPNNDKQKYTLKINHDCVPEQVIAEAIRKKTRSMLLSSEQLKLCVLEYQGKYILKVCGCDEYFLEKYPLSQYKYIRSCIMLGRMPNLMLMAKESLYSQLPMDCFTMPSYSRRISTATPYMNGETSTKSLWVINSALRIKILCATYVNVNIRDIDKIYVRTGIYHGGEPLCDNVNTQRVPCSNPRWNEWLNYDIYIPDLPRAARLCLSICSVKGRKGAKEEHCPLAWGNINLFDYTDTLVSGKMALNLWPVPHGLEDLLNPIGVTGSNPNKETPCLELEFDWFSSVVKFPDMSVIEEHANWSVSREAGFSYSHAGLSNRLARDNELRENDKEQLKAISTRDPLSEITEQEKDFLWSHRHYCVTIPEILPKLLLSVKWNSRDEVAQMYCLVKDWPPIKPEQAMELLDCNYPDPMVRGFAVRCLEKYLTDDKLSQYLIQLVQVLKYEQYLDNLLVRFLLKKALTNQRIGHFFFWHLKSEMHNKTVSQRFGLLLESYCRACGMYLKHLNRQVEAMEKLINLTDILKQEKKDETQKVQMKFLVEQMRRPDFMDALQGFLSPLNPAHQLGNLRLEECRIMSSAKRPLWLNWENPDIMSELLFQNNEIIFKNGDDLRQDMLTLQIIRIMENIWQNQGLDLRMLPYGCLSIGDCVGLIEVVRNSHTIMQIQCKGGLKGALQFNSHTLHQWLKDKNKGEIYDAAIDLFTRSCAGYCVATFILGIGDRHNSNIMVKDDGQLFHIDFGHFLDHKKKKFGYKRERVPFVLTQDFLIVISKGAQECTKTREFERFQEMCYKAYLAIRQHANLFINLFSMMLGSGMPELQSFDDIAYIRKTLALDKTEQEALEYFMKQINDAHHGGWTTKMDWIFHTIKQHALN

[8] = biological target: Ribosomal protein S6 kinase alpha-1 (Homo sapiens, UniProt Q15418); settings: Compound concentration 1000.0 nM
Ribosomal protein S6 kinase alpha-1, sequence (Q15418 whole entry): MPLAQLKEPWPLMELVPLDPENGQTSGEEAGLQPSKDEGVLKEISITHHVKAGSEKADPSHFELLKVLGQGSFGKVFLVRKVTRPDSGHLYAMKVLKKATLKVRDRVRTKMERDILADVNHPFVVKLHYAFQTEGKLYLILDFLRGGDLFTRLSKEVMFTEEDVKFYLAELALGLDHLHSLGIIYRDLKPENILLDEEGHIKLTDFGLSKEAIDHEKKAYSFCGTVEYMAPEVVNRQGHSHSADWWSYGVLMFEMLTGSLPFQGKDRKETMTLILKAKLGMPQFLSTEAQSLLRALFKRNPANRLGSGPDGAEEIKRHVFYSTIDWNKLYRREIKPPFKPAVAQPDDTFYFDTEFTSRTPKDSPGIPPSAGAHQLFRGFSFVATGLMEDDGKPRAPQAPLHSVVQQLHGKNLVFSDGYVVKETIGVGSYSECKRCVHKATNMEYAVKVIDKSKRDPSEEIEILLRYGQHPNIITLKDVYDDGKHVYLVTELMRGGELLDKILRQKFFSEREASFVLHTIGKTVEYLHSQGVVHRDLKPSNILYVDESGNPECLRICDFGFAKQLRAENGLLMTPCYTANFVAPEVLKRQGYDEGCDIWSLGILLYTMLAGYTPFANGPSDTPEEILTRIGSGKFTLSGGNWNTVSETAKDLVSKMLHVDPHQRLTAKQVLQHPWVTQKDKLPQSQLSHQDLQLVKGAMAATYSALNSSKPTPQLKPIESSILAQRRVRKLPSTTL

[9] = biological target: Wee1-like protein kinase (Homo sapiens) (UniProt P30291); settings: Compound concentration 1000.0 nM
[10] = biological target: 5-hydroxytryptamine receptor 1D (Homo sapiens) (UniProt P28221); settings: Compound concentration 10.0 uM
5-hydroxytryptamine receptor 1D (Homo sapiens), sequence (P28221 whole entry): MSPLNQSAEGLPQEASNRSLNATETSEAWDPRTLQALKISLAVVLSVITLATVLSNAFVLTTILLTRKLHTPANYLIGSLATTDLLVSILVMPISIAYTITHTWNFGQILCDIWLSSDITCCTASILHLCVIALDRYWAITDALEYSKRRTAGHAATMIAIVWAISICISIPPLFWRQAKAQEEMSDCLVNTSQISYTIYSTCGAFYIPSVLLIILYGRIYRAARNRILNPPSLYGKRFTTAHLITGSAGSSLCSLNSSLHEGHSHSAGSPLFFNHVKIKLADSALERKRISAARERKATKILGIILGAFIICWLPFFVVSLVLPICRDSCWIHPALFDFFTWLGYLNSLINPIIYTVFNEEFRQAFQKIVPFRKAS

CCc1ccccc1C(=O)Nc1n[nH]c2c(C)c(F)c(C3C(C#N)=C(C)N(C)C(C)=C3C#N)cc12 [BAY-3827]
inactive: residual activity [1] 55% | residual activity [2] 100% | residual activity [3] 84% | residual activity [4] 82% | residual activity [5] 83% | residual activity [6] 100% | residual activity [7] 75% | residual activity [8] 100% | residual activity [9] 100% | inhibition [10] 4.65%

CC1=C(C#N)C(c2ccc3c(c2)c(NC(=O)c2ccccc2C)nn3C)C(C#N)=C(C)N1 [BAY-974]
inactive: residual activity [1] 100% | residual activity [2] 74% | residual activity [3] 65% | residual activity [4] 94% | residual activity [5] 98% | residual activity [6] 100% | residual activity [7] 100% | residual activity [8] 100% | residual activity [9] 100% | inhibition [10] 2.45%
